Results reported in patent US9157122B2, “Method of diagnosing cancer and reagents therefor” (Garvan Institute of Medical Research, priority 2004, dated 2015).

What was measured:
Format in all cases: cell-based, human
HCT116 cells [1] = assay: ChIP assay with anti-dimethyl-histone H3(lys9) antibody in treated HCT116 cells, real-time PCR; conditions: relative to untreated cells; for methylation of H3-K9 histones associated with the p21 CpG island promoter region: FIG. 17a; for methylation of H3-K9 histones associated with the unmethylated genes (DDX18, INSIG2, PTPN, RALBB): FIG. 17g-k; for binding of methylated K9-H3 histones to DNA methylated genes (EN1, SCTR, INHBB, GLI2, MARCO): FIGS. 17b-f
Procedure: ChIP assays were carried out according to the manufacturer (Upstate Biotechnology) and described in Stirzaker et al., Cancer Res 64: 3871-3877, 2004. Briefly, 1×10^6 HCT116 cells, in a 10 cm dish, were fixed by adding formaldehyde at a final concentration of 1% and incubating for 10 minutes at 37° C. The cells were washed twice with ice cold PBS containing protease inhibitors (1 mM phenylmethylsulfonyl fluoride (PMSF), 1 μg/ml aprotinin and 1 μg/ml pepstatin A), harvested and treated with SDS lysis buffer for 10 min on ice. The resulting lysates were sonicated to shear the DNA to fragment lengths of 200 to 500 basepairs. […] No antibody controls were also included for each ChIP assay and no precipitation was observed. The antibody/protein complexes were collected by salmon sperm DNA/protein A agarose slurry and washed several times following the manufacturer's instructions. The immune complexes were eluted with 1% SDS and 0.1 M NaHCO3 and the crosslinks were reversed by incubation at 65° C. for 4 hours in the presence of 200 mM NaCl. The samples were treated with proteinase K for 1 hour and the DNA was purified by phenol/chloroform extraction, ethanol precipitation and resuspended in 30 μl H2O. The amount of target that was immunoprecipitated, was measured by Real-Time PCR using the ABI Prism 7900HT Sequence Detection System. Amplification primers are set forth SEQ ID NOs: 235 to 256. PCR reactions were set up according to the SDS compendium (ver 2.1) for the 7900HT Applied Biosystems Sequence Detector as described previously (Stirzaker, supra). Either immunoprecipitated DNA, no-antibody control or input chromatin were used in each PCR and the PCRs were set up in triplicate. Standard deviation was calculated using the Comparative method (ABI PRISM 7700 Sequence Detection System User Bulletin #2, […] 4303859). For each sample an average CT value was obtained for immunoprecipitated material and for the input chromatin. The difference in CT values (delta CT) reflects the difference in the amount of material that was immunoprecipitated relative to the amount of input (ABI PRISM 7700 Sequence Detection system User Bulletin #2, […] 4303859). To determine if chromatin modification was associated with the suppression of all the genes across the entire band in cancer, regardless of the DNA methylation status, ChIP (chromatin immunoprecipitation) analysis and real-time PCR was performed.

HCT116 cells [2] = assay: Real-time RT-PCR gene expression in HCT116 cells treated with 5-Aza-2′-deoxycytidine and/or TSA; conditions: for expression of CpG island-associated genes that are unmethylated and transcriptionally repressed: DDX18, INSIG2, PTPN, RALBB, TSN, FIG. 16g-k; for expression of genes hypermethylated in HCT116 (EN1, SCTR and INHBB): genes linked to 2q14.2, FIG. 16b, c and d
Procedure: RNA was extracted using Trizol reagent (Invitrogen) according to the manufacturer's protocol. cDNA was reverse transcribed from 2 μg of total RNA using SuperScriptTM III RNase H^- Reverse Transcriptase (Invitrogen Life technologies), according to the manufacturer's instructions. The reaction was primed with 200 ng of random hexamers (Roche). The reverse transcription reaction was then diluted 1:20 with sterile H2O before addition to a PCR reaction. […] The primers used for amplification comprise a sequence set forth in any one of SEQ ID Nos 119 to 218. Primers were used in a combination described herein. To control for the amount and integrity of the RNA, the Human 18S ribosomal RNA (rRNA) kit (P/N 4308329) (Applied Biosystems), containing the rRNA forward and reverse primers and rRNA VICTM probe, was used. 5 μl of the reverse transcription was used in a 20 μl reaction in TaqMan Universal PCR Master Mix (P/N 4304437) with 1 μl of the 20× Human 18S rRNA mix. The reactions were performed in triplicate and the standard deviation was calculated using the Comparative method (ABI PRISM 7700 Sequence Detection system User Bulletin #2, […] 4303859). The cycle number corresponding to where the measured fluorescence crosses a threshold is […] to the amount of starting material. The mean expression levels are represented as the ratio between each gene and 18S rRNA expression. The colon cancer cell line HCT116 was cultured in D-MEM/F12 (Gibco/BRL) medium supplemented with MEM sodium pyruvate and L-Glutamine and 10% fetal calf serum at 37° C. with 10% CO2. Cells were split 1:8 every 3-4 days. Cells were split 12 h to 24 h prior to treatment. 5-Aza-2'-deoxycytidine (5-aza-dC)(Sigma) was prepared as a 1 mg/ml stock in sterile water, filter-sterilized and frozen as aliquots. 100 mm tissue culture dishes were seeded with 0.5×10^6 cells and following 24 h incubation the cells were treated with 0.5 μm 5-aza-dC. The cells were treated for 24 hours after which the medium was replaced with fresh medium and the cells cultured for a further 48 h before harvesting. Cells were treated with trichostatin A (TSA) (Sigma) at 25, 50 and 100 nM for 24 h. Alternatively, an identical volume of ethanol was used as a control. For co-treatment of cells with 5-aza-dC and TSA, 5-aza-dC was added initially for 24 h, after which it was removed and TSA was added for a further 24 h. The concentrations and the treatment conditions used were chosen based on preliminary studies showing optimal reactivation of gene expression. Expression levels of the genes DDX18, INSIG2, EN1, MARCO, PTPN4, RALBB, GLI2 and TSN was determined essentially as described above.

HCT116 cells [3] = assay: ChIP assay with anti-acetylated histone antibody in treated HCT116 cells, real-time PCR; conditions: relative to untreated cells, FIG. 18
Procedure: ChIP assays were carried out according to the manufacturer (Upstate Biotechnology) and described in Stirzaker et al., Cancer Res 64: 3871-3877, 2004. Briefly, ˜1×10^6 HCT116 cells, in a 10 cm dish, were fixed by adding formaldehyde at a final concentration of 1% and incubating for 10 minutes at 37° C. The cells were washed twice with ice cold PBS containing protease inhibitors (1 mM phenylmethylsulfonyl fluoride (PMSF), 1 μg/ml aprotinin and 1 μg/ml pepstatin A), harvested and treated with SDS lysis buffer for 10 min on ice. The resulting lysates were sonicated to shear the DNA to fragment lengths of 200 to 500 basepairs. The complexes were immunoprecipitated with an antibody specific for dimethyl-histone H3(lys9), Upstate Biotechnology (#07-212) or acetylated histone. […]
The amount of target that was immunoprecipitated, was measured by Real-Time PCR using the ABI Prism 7900HT Sequence Detection System. […] Standard deviation was calculated using the Comparative method (ABI PRISM 7700 Sequence Detection System User Bulletin #2, 1997 (P/N 4303859). For each sample an average CT value was obtained for immunoprecipitated material and for the input chromatin. The difference in CT values (delta CT) reflects the difference in the amount of material that was immunoprecipitated relative to the amount of input (ABI PRISM 7700 Sequence Detection system User Bulletin #2, 1997 (P/N 4303859).

Row | SMILES | methylation of H3-K9 histones associated with the p21 CpG island promoter region (HCT116 cells [1]) | methylation of H3-K9 histones associated with the unmethylated genes (DDX18, INSIG2, PTPN, RALBB) (HCT116 cells [1]) | binding of methylated K9-H3 histones to DNA methylated genes (EN1, SCTR, INHBB, GLI2, MARCO) (HCT116 cells [1]) | p21 expression activated (control gene) (HCT116 cells [2]; 0.5 μm 5-aza-dC 24 h, TSA 24 h, co-treatment 5-aza-dC 24 h then TSA 24 h, normalised to 18S RNA, FIG. 16a) | expression of CpG island-associated genes that are unmethylated and transcriptionally repressed (HCT116 cells [2]) | expression of genes hypermethylated in HCT116 (EN1, SCTR and INHBB) (HCT116 cells [2]) | H3-K9 acetylation for genes hypermethylated in HCT116 cells (HCT116 cells [3])
1 | CC(/C=C/C(=O)NO)=C\[C@@H](C)C(=O)c1ccc(N(C)C)cc1 [TSA, trichostatin A] | substantial demethylation | substantial demethylation | binding was reduced | more than 3 fold | some reactivation | small increases of expression | Increased H3-K9 acetylation
2 | Nc1ncn([C@H]2C[C@H](O)[C@@H](CO)O2)c(=O)n1 [5AzaC, 5-Aza-2′-deoxycytidine] | Demethylation of the H3-K9 histones also occurred | resulted in demethylation | binding was reduced |  | some reactivation | small increases of expression | 
